Reference: patent publication US6780596B2, “Methods for determining the activity of complex mixtures” (Ashni Naturaceuticals, Inc., priority 1998, dated 2004)

Tested on: LNCaP prostate cells
Test: Phosphotyrosyl protein expression in LNCaP prostate cells (SDS-PAGE, anti-phosphotyrosine immunoblot)
Format: cell-based, human
Details: for number of phosphotyrosylprotein bands decreased in staining intensity / affected: of sixteen bands in dividing LNCaP cells, 15 to 90 kDa
Description: Chemicals: Anti-phosphotyrosine antibodies may be purchased from Upstate Biotechnology (Lake Placid, N.Y.). Saw palmetto (Serenoa repens) extract may be obtained from Ashland Nutritional (Irvine Calif.). All other chemicals may be purchased from Sigma Chemical Company (St. Louis, Mo.) and are the highest purity commercially available.
Human Prostate Cell Line: The LNCaP prostate cell line (CRL-1740) is useful as a model for prostate hyperplasia and may be obtained from the American Type Culture Collection (Bethesda, Md.). LNCaP cells were originally isolated from a person and are characteristic of prostatic carcinoma. They are androgen and estrogen responsive, produce prostate specific antigen (PSA), and prostatic acid phosphatase in culture.
Cell Plating: LNCaP cells may be propagated as monolayers according to the instructions of the supplier. For experiments, cells may be plated at a density of 1×10^5 cells per mL in 100 mm plates, 20 mL per plate, 3 plates per treatment. […]
On day three, a subset of control LNCaP cells is synchronized to Go by reducing the serum concentration of the medium to 0.5%. These cells are termed quiescent, resting or unstimulated LNCaP cells.
After a four-day incubation period with the test materials, the test LNCaP cells may be collected by washing plates three times with ice-cold phosphate-buffered saline, pH 7.4 (PBS) over ice, removed by scraping, pelleted by centrifugation at 4° C. The cell pellet may be lysed for 20 min. in 20 mM Tris buffer (pH 8.0) with 137 mM NaCl, 10% glycerol, 1% Nonidet P-40, 1 mM phenylmethylsulfonyl fluoride, 0.15 units/mL aprotonin, and 1 mM sodium orthovanadate while on wet ice. Cell lysates are collected after centrifugation at 30,000 rpm at 4° C. for 10 minutes to separate cellular debris from lysates.
Gel Electrophoresis: Sodium dodecyl sulfate polyacrylamide gel electrophoresis (PAGE) is performed using 10% polyacrylamide gels, as described by Laemmli, U.K. and Favre, M., 80 Journal of Molecular Biology 575-99 (1973), with the modification that the cell lysates (100 μg protein/lane) are heated at 100° C. for three minutes.
Immunoblotting: The immunoblotting is performed as described by Towbin et al., 76 Proc. Natl. Acad. Sci. USA 4350 (1979), however, a Milliblot SDE electroblot apparatus (Millipore, Bedford, Mass.), is used to transfer proteins from the polyacrylamide gels to an IMMOBILON® membrane filter. Complete transfers are accomplished in 25-30 minutes at 500 mA. Membranes used for blotting are blocked by incubating in TBS (Tris buffered saline, 50 mM Tris, 150 mM NaCl, pH 7.5) containing 5% nonfat dry milk for 30 minutes at room temperature. Phosphotyrosylproteins are visualized by incubation of the blots with the anti-phosphotyrosine antibody in TBST (0.05% Tween 20 in TBS) for two hours and then a second incubation at room temperature with alkaline phosphatase-conjugated secondary antibody diluted 1:1000 in TBST for two hours. The enzymatic reaction is developed for 15 minutes. Molecular weights of immuno-stained proteins are estimated by adding molecular weight standards to reference lanes and staining the membrane filters with amido black 10B.
Blots are translated into TIFF-formatted files with a Microtech 600GS scanner and quantified using Scan Analysis (BIOSOFT™, Cambridge, UK). Summary scans are then printed and peak heights are measured directly from figure. One density unit (Du) is defined as one mm of the resulting peak height.
Protein Determination: Spectrophotometric determination of protein concentration is determined with bicinchoninic acid as reported by Smith, et al. Measurement of protein using bicinchoninic acid. 150 ANAL. BIOCHEM. 76-85 (1985).
Statistical Analysis: Dose responses are defined as three or more consecutive doses resulting in a consistent, reproducible appearance or disappearance of a phosphotyrosylprotein in the immunoblot. […]

CC[C@H](CC[C@@H](C)[C@H]1CC[C@H]2[C@@H]3CC=C4C[C@@H](O)CC[C@]4(C)[C@H]3CC[C@]12C)C(C)C [beta-sitosterol] was tested, and the “phosphotyrosylproteins at 45 and 50 kDa” value (50 μg beta-sitosterol/mL) was “faint bands”, the “concentration at which the 36 and 40 kDa phosphotyrosylproteins disappear entirely” value (beta-sitosterol 5, 10 or 50 μg/mL) was 10 µg/mL and the “number of phosphotyrosylprotein bands decreased in staining intensity / affected” value was “four”.

In the case of CC(C)(C)NC(=O)[C@H]1CC[C@H]2[C@@H]3CC[C@H]4NC(=O)C=C[C@]4(C)[C@H]3CC[C@]12C [finasteride, Finasteride], the “40 kDa band” value (0.05 μg/mL finasteride) was “barely visible”, the “tyrosylphosphorylation of the 28 and 36 kDa proteins” value (0.05 μg/mL finasteride) was “completely eliminated” and the “number of phosphotyrosylprotein bands decreased in staining intensity / affected” value was “three”.

For CC(C)=CCC/C(C)=C/C=C/C(C)=C/C=C/C(C)=C/C=C/C=C(C)/C=C/C=C(C)/C=C/C=C(\C)CCC=C(C)C [lycopene], the “concentration at which the 15, 17 and 20 kDa phosphotyrosylproteins disappear entirely” value (lowest concentration tested) was 100 ng/mL and the “number of phosphotyrosylprotein bands decreased in staining intensity / affected” value was “fourteen”.

For C/C1=C2/[N-][C@H]([C@H](CC(N)=O)[C@@]2(C)CCC(=O)NC[C@@H](C)OP(=O)([O-])O[C@H]2[C@@H](O)[C@@H](n3cnc4cc(C)c(C)cc43)O[C@@H]2CO)[C@]2(C)N=C(/C(C)=C3N=C(/C=C4N=C1[C@@H](CCC(N)=O)C\4(C)C)[C@@H](CCC(N)=O)[C@]\3(C)CC(N)=O)[C@@H](CCC(N)=O)[C@]2(C)CC(N)=O.[CH3-].[Co] [methylcobalamine], the “phosphotyrosylproteins at 40 and 50 kDa” value (500 μg methylcobalamine/mL) was “faint bands”, the effective concentration (effect on phosphotyrosylprotein expression) was “approximately 500 μg/mL” and the “concentration at which the 45 kDa phosphotyrosylprotein disappears entirely” value (methylcobalamine 5, 50 or 500 μg/mL) was 500 µg/mL. The “number of phosphotyrosylprotein bands decreased in staining intensity / affected” value was “three”.

With C[C@H]1[C@H](C)CC[C@]2(C(=O)O)CC[C@]3(C)C(=CC[C@@H]4[C@@]5(C)CC[C@H](O)C(C)(C)[C@@H]5CC[C@]43C)[C@H]12 [ursolic acid] the “concentration at which the phosphotyrosylproteins at 28, 30, 50 and 60 kDa are no longer visible” value (highest concentration tested) was 5 µg/mL, the “concentration at which the 17, 20, 28 and 34 kDa phosphotyrosylproteins disappear entirely” value (lowest concentration tested) was 0.5 µg/mL and the “number of phosphotyrosylprotein bands decreased in staining intensity / affected” value was “ten”.
